# Experimental data as given in US20250057791A1, “PROTECTION AGAINST ARTHROPOD PARASITES WITH PURINERGIC RECEPTOR (OPR) ANTAGONISTS” (priority 2021, published 2025).
# Experiments:
# Haematobia irritans = experiment: Membrane feeding assay, horn fly Haematobia irritans; format: in vivo; conditions: for effect on feeding on solutions containing ATP, in words: doses as in Table 10
# Protocol: Flies of both species were transferred 30 min before feeding experiments to feeding cages as used for mosquitoes at 24° C., 80% RH in an environmental cabinet. Teneral tsetse were fed at 2 to 4 days old during the photophase with between 7 and 13 flies per feeding cage, covered with a black cloth. Horn flies were tested at 1 and 2 days old in the photophase with between 6 and 21 flies per cage. Both fly species were fed using small Hemotek feeding reservoirs (29 mm diameter, 1 ml) equipped with a membrane as for mosquitoes. Horn flies were fed for 15 min with feeding reservoirs placed on the cage. For tsetse, cages were closed with black mosquito netting at the bottom to allow flies to feed through the membrane placed under the cage. Feeding time (1.5 to 6 min) for tsetse was adjusted as a function of age to achieve at least 30% feeding on the positive control included in each feeding experiment. The positive control for both fly species contained 150 mM NaCl, 8.9 mM NaHCO3 with 100 μM ATP added, hereafter termed fly feeding solution (FFS). The pH of the FFS was adjusted as for ticks. The effect of TMP on feeding by G. pallidipes was also tested at 16 μg TMP/cm^2 dissolved in 140 μl hexane and applied homogeneously to the membrane surface using a micropipette. Hexane was used to treat the membrane with TMP to avoid the test compound being dispersed by fly wing-fanning. Flies of both species were activated just prior to feeding on a treatment by exhalation into the cage. Tsetse that had fed were identified with swollen abdomens and counted at the end of a feeding experiment. Since it was difficult to ascertain by eye whether a horn fly had fed on a treatment, 10 μl/ml of blue food colorant (No. 4866908, Trawosa AG, St. Gallen, Switzerland) was added. This facilitated the detection of ingested liquid when the abdomen of flies, killed by freezing, was squashed onto filter paper. Only experiments in which the feeding rate by flies was >30% on the positive control were included in analyses.
# Uptake of TFS containing PR antagonists, converted to mg/h for hard ticks and weight gains in mg/25 min for soft ticks, was compared to TFS uptake in the corresponding positive controls. […] For tsetse and horn flies the percentage flies that fed per antagonist treatment served as the criterion for inhibition of feeding. As horn fly sexes emerged within 24 h, both sexes were assumed to show the same degree of appetence. In tsetse, males emerged first so a gender-related appetence could not be excluded. No sex-related feeding differences in feeding were found for testse (GLM, P>0.05) so data for the sexes were pooled. Comparisons of percentage fed flies were made using a Bayesian GLM—the most appropriate model considering the zero-inflated distributions shown by the data sets. […] P-values were corrected using Holm's FWEC in multiple comparisons of data for each tick and fly species.
# A. stephensi = experiment: Membrane feeding assay, A. stephensi; format: in vivo, Anopheles stephensi; conditions: for effect on feeding on solution containing ATP, in words: doses as in Table 8
# Protocol: Experiments with A. gambiae and A. stephensi were made in a climate chamber at 28° C. and 80% RH during the last 6 hours of scotophase. As a sugar meal can interfere with the blood meal by reducing the number of females that feed, the sucrose solution supplied in rearing cages to mosquitoes employed for feeding experiments was reduced to 5%. […] The 5% sucrose solution was presented to mosquitoes from emergence on four 1 cm diam. cotton dental rolls (Hartmann A G, Neuhausen, Switzerland) inserted in 10 ml upturned glass vials placed in holes at each corner of the rearing cage ceiling. Cotton rolls were turned daily in vials and renewed every two days. Mosquitoes were not fed blood and were deprived of sucrose 17 to 20 hours before experiments. Thirty min before a feeding experiment, between 10-25, 6-day-old females that responded to activation by human breath were removed with a mouth aspirator from the rearing cage wall and placed in polystyrol cylinders with the floor cut out (10 cm dm×15 cm high; Semadeni, Ostermundigen, Switzerland) that served as feeding cages. Each cage was covered with mosquito netting at one end and a soft polyurethane lid at the other.
# Mosquitoes were fed for 30 min using a feeding system (Hemotek®, Hemotek Ltd, Blackburn, UK) consisting of 3.5 ml stainless steel reservoirs 37 mm in diameter covered with a 60-90 μm thick silicone-impregnated membrane (Kröber and Guerin, 2007 in “Feeding assays for hard ticks”, Trends in parasitology 23, 445-449; doi 10.1016/j.pt.2007.07.010). Feeding reservoirs reached a temperature of 37° C. within 10 min and were placed on the netting of feeding cages. Mosquitoes were activated using a 200 ms pulse of pure CO2 (volume 6.25 ml) from a pressurised cylinder (Carbagas, Switzerland) using a solenoid valve that caused the CO2 level in the feeding cage to rise to at least 1,500 ppm. Between 3 and 4 sets of 10 feeding cages held in a custom-built Ertacetal® POM frame were tested per day, depending of the number of female mosquitoes available from the colony.
# All compounds were tested in a mosquito feeding solution (FS) consisting of 25 mM dextrose, 25 mM NaCl buffered with 8.93 mM NaHCO3 adjusted to pH 7.4. Feeding responses of A. gambiae and A. stephensi to ATP as a function of dose were tested with between 7 to 10 feeding cages per dose. Each feeding experiment with an antagonist systematically included a treatment containing the FS as negative control along with a treatment containing the FS […] These positive and negative controls permitted to monitor any effect of experimental day on feeding responses as a function of dose for antagonists that were recorded over several days. […] Four to 10 cages each with 10 to 29 mosquitoes were tested per antagonist dose. […] The number of feeding cages used to test other compounds and their mixtures as feeding stimulants or as feeding inhibitors is listed on Table 6. The percentage of fed mosquitoes was estimated by visual inspection of abdominal distention that is indicative of engorgement.
# Pairwise comparisons of A. gambiae electrophysiological (EP) responses to ATP and adenosine alone and combined with a given dose of PR antagonist, EP responses to ATP alone and combined with a given dose of a metal modulator, and EP responses to ATP prior to and after exposure of a sensillum to a given dose of a PR antagonist were made with a one-tailed Wilcoxon signed-rank test for data showing a non-normal distribution, with a paired Student's t-test for normally distributed data showing homogeneous variance and with a Welch's t-test for normally distributed data showing non-homogeneous variance. […]
structure (smiles),measurement,setting,value
Cc1ccc(C(=O)Nc2ccc(S(=O)(=O)O)c3cc(S(=O)(=O)O)cc(S(=O)(=O)O)c23)cc1NC(=O)c1cccc(NC(=O)Nc2cccc(C(=O)Nc3cc(C(=O)Nc4ccc(S(=O)(=O)O)c5cc(S(=O)(=O)O)cc(S(=O)(=O)O)c45)ccc3C)c2)c1 [Suramin],"% Fed, Median",Haematobia irritans; FFS + 50 μM,61.5%
same,"% Fed, Median",Haematobia irritans; FFS + 100 μM,46.2%
same,% Fed females (mean ± s.e.m.),"A. stephensi; 80 μM, feeding solution with 160 μM ATP",30.04 ± 7.75%
same,inhibition at 80 µM,"A. stephensi; Anopheles stephensi, 80 μM, Abbott's formula",58.8%
"Nc1ncnc2c1ncn2[C@@H]1O[C@H](COP(=O)(O)OP(=O)(O)OP(=O)(O)O)[C@@H](O)[C@H]1O [ATP, Adenosine 5′-triphosphate]",% Fed females (mean ± s.e.m.),"A. stephensi; ATP 160 μM, positive control",72.96 ± 5.9%
same,"ED95, feeding stimulant",A. stephensi; feeding as a function of dose,160 µM
"Cc1nc(C)c(C)nc1C [TMP, 2,3,5,6-tetramethylpyrazine]","% Fed, Median",Haematobia irritans; FFS + 50 μM,50%
same,"% Fed, Median",Haematobia irritans; FFS + 100 μM,37.5%
same,"% Fed, Median",Haematobia irritans; FFS + 500 μM,0%
same,"effect on feeding on solutions containing ATP, in words",Haematobia irritans,inhibited feeding
same,% Fed females (mean ± s.e.m.),"A. stephensi; 0.8 μM, feeding solution with 160 μM ATP",26.67 ± 2.98%
same,inhibition at 0.8 µM,"A. stephensi; Anopheles stephensi, 0.8 μM, Abbott's formula",63.5%
same,"effect on feeding on solution containing ATP, in words",A. stephensi,inhibited feeding
"O=C(O)c1cc(C(=O)O)c(C(=O)N(Cc2cccc(Oc3ccccc3)c2)[C@H]2CCCc3ccccc32)cc1C(=O)O [A-317491, 5-[(3-phenoxyphenyl)methyl-[(1S)-1,2,3,4-tetrahydronaphthalen-1-yl]carbamoyl]benzene-1,2,4-tricarboxylic acid]","% Fed, Median",Haematobia irritans; FFS + 10 μM,58.3%
same,"% Fed, Median",Haematobia irritans; FFS + 100 μM,41.5%
same,"effect on feeding on solutions containing ATP, in words",Haematobia irritans,inhibited feeding
same,% Fed females (mean ± s.e.m.),"A. stephensi; 0.08 μM, feeding solution with 160 μM ATP",29.68 ± 7.14%
same,inhibition at 0.08 µM,"A. stephensi; Anopheles stephensi, 0.08 μM, Abbott's formula",59.3%
same,"effect on feeding on solution containing ATP, in words",A. stephensi,inhibited feeding
